Assay results as given in patent publication US7432386B2, “Diarylbutadiene-substituted methyltrialkylsilanes and photoprotective compositions comprised thereof” (L'Oreal, priority 2003, dated 2008).

Experiment: UV absorption spectrum in ethanol
Type: physicochemical
Conditions: for UV E1% / UV εmax: at λmax

SMILES: CCOC(=O)/C(=C/C=C(c1ccccc1)c1ccccc1)C(=O)OC[Si](C)(C)C [Example 2]
- UV λmax: 334 nm
- UV E1%: 692
- UV εmax: 28 270

SMILES: C[Si](C)(C)COC(=O)C(=CC=C(c1ccccc1)c1ccccc1)C(=O)OC[Si](C)(C)C [Example 1]
- UV λmax: 333 nm
- UV E1%: 614
- UV εmax: 28 610

SMILES: C[Si](C)(C)COC(=O)/C(C#N)=C\C=C(c1ccccc1)c1ccccc1 [Example 3, monotrimethylsilanylmethyl ester of 2-cyano-5,5-diphenyl-2,4-pentadienoic acid]
- UV λmax: 360 nm
- UV E1%: 800
- UV εmax: 28 880
